# Values joined by “and” are separate entries in the source; they are usually repeats but may differ in a detail not shown here. Equal entries are not always repeated. “Also recorded” adds a separate entry of the source.
# What was measured:
# Assay type in all cases: cell-based
# [1] = test system: Pseudomonas aeruginosa (ATCC27853); assay: Minimal Inhibitory Concentration (MIC) on Pseudomonas aeruginosa with or without PMBN
# Protocol: A single colony grown on an tryptic soy agar plate is resuspended and cultured in tryptic soy broth medium overnight (O/N) in aerobic conditions (37° C. with 220 rpm shaking), next day a 1:100 inoculum in Mueller-Hinton broth (MHB) is incubated in aerobic conditions for 3h (OD=0.5-0.6) and an inoculum of 1:1000 dilution, corresponding to 1-3×10^5 CFU/ml, is incubated in presence or absence of different concentrations of the tested molecules in 1% DMSO (vehicle) with or without PMBN at 0.5 μg/ml. After 28-30h growth the OD of each culture was measured at 600 nm (OD600) in a spectrophotometer (Victor 3-Perkin Elmer). The MIC represents the concentration at which there is no visible growth of bacteria, i.e. ΔOD at 600 nm equal to zero (blank is the medium alone) wherein ΔOD is the difference between the resulting optical density (OD) with the molecule together with PMBN, and the optical density (OD) of the blank (blank is the medium) alone.
# [2] = test system: E. coli (ATCC 8739) biofilm; assay: Inhibition of E. coli biofilm formation (crystal violet, biofilm mass); settings: for E. coli biofilm mass expressed in percentage: replicate values
# Protocol: 1.5×10^4 CFU of E. coli (ATCC 8739) in early logarithmic phase were added in a well of a 48-well polystyrene plate containing Luria Bertani (LB) medium supplemented with 5% mannose (purchased from Sigma-aldrich #M6020-25G) and incubated for 48h at 37° C. The incubation was carried in static conditions in presence or absence of different concentrations of the molecules 2329 or 2666 in combination or not with the penetrating agent polymyxin B nonapeptide (PMBN) (35 μg/ml) (provided by Sigma-aldrich #P2076-5MG). After incubation, planktonic bacteria, which are bacteria floating in the liquid medium, were removed and adherent bacteria were washed 2 times in PBS. Crystal Violet (Sigma-aldrich #C0775-25G) (1% solution in dH2O) was then added to the wells for 15 min at RT to stain the biofilm. Wells were washed 3 times with PBS (phosphate buffered saline provided by Lonza #17-516F) to eliminate unbound crystal violet and […] Acetic Acid 20% was added and incubated at RT for 10 min. The absorbance of the solution was measured at 570 nm with an Infinite 200 PRO (Tecan) reflecting the total biomass of the biofilm, which corresponds to the sum of live and dead bacteria. The Biofilm Mass, expressed in percentage, is calculated by the following formula: Abs(sample)/Abs(DMSO 1%)*100, wherein the Abs(sample) or Abs(DMSO) represents the difference between the absorbance of the sample or DMSO and the blank (blank is the medium alone without bacteria).
# [3] = test system: Escherichia coli (ATCC 8739); assay: Minimal Inhibitory Concentration (MIC) on Escherichia coli with or without PMBN, OD600 after O/N growth; settings: for MIC: molecule alone
# Protocol: The Minimal Inhibitory Concentration (MIC) of molecules 2329, 2412, 2452 and 2461 together with polymyxin B nonapeptide (PMBN) was determined on Escherichia coli (ATCC 8739) according to EUCAST (European Committee on Antimicrobial Susceptibility Testing) recommendations.
# (§1) Briefly, a single colony grown on a Luria-Bertani Agar (LB) plate was resuspended and cultured in the LB medium overnight (O/N) in aerobic conditions (37° C. with 220 rpm shaking), next day a 1:50 inoculum in Mueller-Hinton broth (MHB) was incubated in aerobic conditions for 1h30 (OD=0.08-0.1) and an inoculum of 1:300 dilution, corresponding to 3×10^6 CFU/ml, was incubated in presence or absence of different concentrations of the molecules in 1% DMSO (vehicle) with or without Polymyxin B nonapeptide (PMBN) at 40 μg/ml. After O/N growth the OD of each culture was measured at 600 nm in a spectrophotometer (OD600). The MIC represents the concentration at which there is no visible growth of bacteria, i.e. ΔOD at 600 nm equal to zero wherein ΔOD is the difference between the resulting optical density (OD) with the molecule together with PMBN, and the optical density (OD) of the blank (blank is the medium) alone.
# (§2) A single colony grown on an Lurian-Bertani (LB) agar plate is resuspended and cultured in LB medium overnight (O/N) in aerobic conditions (37° C. with 220 rpm shaking), next day a 1:50 inoculum in Mueller-Hinton broth (MHB) is incubated in aerobic conditions for 1h30 (OD=0.08-0.1) and an inoculum of 1:300 dilution, corresponding to 3×10^6 CFU/ml, is incubated in presence or absence of different concentrations of the tested molecules in 1% DMSO (vehicle) with or without PMBN at 40 μg/ml. After O/N growth the OD of each culture was measured at 600 nm (OD600) in a spectrophotometer (Victor 3-Perkin Elmer). The MIC represents the concentration at which there is no visible growth of bacteria, i.e. ΔOD at 600 nm equal to zero wherein ΔOD is the difference between the resulting optical density (OD) with the molecule together with PMBN, and the optical density (OD) of the blank (blank is the medium) alone.
# as §1, with “cultured in LB medium” for “cultured in the LB medium”, “of the above-mentioned molecules in” for “of the molecules in”
# as §2, with “a Luria-Bertani” for “an Lurian-Bertani”, “above-mentioned pyrazolopyrimidine molecule” for “tested molecules”, “alone. […]” for “alone.”
Molecule,Inhibition of Pseudomonas aeruginosa growth by PMBN alone ([1]; 0.5 μg/ml PMBN alone),Effect on E. coli biofilm growth (FIG. 2) ([2]; PMBN 35 μg/ml alone),E. coli biofilm mass expressed in percentage ([2]; PMBN 35 μg/ml alone),Inhibition of E. coli growth by PMBN alone ([3]; 40 μg/ml PMBN alone),"Minimal inhibitory concentration without PMBN ([1]; Pseudomonas aeruginosa (ATCC 27853), molecule alone)","Minimal inhibitory concentration With PMBN ([1]; Pseudomonas aeruginosa (ATCC 27853), together with PMBN at 0.5 μg/ml)",Effect on E. coli biofilm formation (FIG. 2) ([2]; 5 μM combined with 35 μg/ml PMBN),E. coli biofilm mass expressed in percentage ([2]; 2329 20 μM without PMBN),E. coli biofilm mass expressed in percentage ([2]; P + 2329 5 μM (PMBN 35 μg/ml)),E. coli biofilm mass expressed in percentage ([2]; P + 2329 10 μM (PMBN 35 μg/ml)),"Effect on E. coli biofilm growth (FIG. 2) ([2]; molecule alone, without PMBN)",OD600 nm after O/N growth of Escherichia coli (FIG. 4) ([3]; 10 μM with 40 μg/ml PMBN),MIC ([3]; E. coli (ATCC 8739)),"Minimal inhibitory concentration With PMBN ([3]; E. coli (ATCC 8739), together with PMBN at 40 μg/ml)","MIC ([3]; Escherichia coli, ATCC8739, E. coli (ATCC 8739))","Activity against Escherichia coli (ATCC 8739), conclusion ([3]; with 40 μg/ml PMBN)"
"Polymyxin B nonapeptide [PMBN, reference compound]",did not inhibit,reduced by half,47.94 percentage and 48.98 percentage and 53.90 percentage and 50.87 percentage,unable to inhibit; also recorded: did not inhibit,–,–,–,–,–,–,–,–,–,–,–,–
"CCCSc1nc(N[C@@H]2C[C@H]2c2ccc(F)c(F)c2)c2ncn(C)c2n1 [molecule 2329, N-((1R,2S)-2-(3,4-difluorophenyl)cyclopropyl)-9-methyl-2-(propylthio)-9H-purin-6-amine]",–,–,–,–,>100 µM,50 µM,fully inhibited,110.45 percentage and 124.24 percentage and 97.41 percentage and 107.12 percentage,12.79 percentage and 11.45 percentage and −1.25 percentage and −1.59 percentage,0.12 percentage and −1.01 percentage and 2.96 percentage and 3.11 percentage,no effect,killed all bacteria,>100 µM,10 µM,> 100 µM,bactericidal activity

# From patent US12318388B2, “Pyrimidine derivatives for prevention and treatment of gram-negative bacterial infection, contamination and fouling” (UNIVERSITÉ DE LIÈGE, priority 2019, dated 2025)
